Source: paper PMC6427912 (Journal of medicinal chemistry, 2019)
Like-named read-outs stand apart in the source and are kept apart here.

Columns and labels:
HEK293 cells = assay: HEK293 cell growth inhibition assay; type: cell-based, human; settings: HEK293 cell growth inhibition ED50, 24 hr incubation
B. anthracis Sterne = type: cell-based, Bacillus anthracis; settings: B. anthracis Sterne growth inhibition
Mycobacterium smegmatis = assay: M. smegmatis growth inhibition assay; type: cell-based
B. subtilis = B. subtilis growth inhibition assay; type: cell-based, Bacillus subtilis
S. aureus = S. aureus growth inhibition assay; type: cell-based, Staphylococcus aureus; settings: S. aureus growth inhibition

SMILES | HEK 293 (HEK293 cells) [µg/mL] | HEK 293 (HEK293 cells; value in parentheses) [µM] | Ba ED50 (B. anthracis Sterne) [µg/mL] | Ba ED50 (B. anthracis Sterne; value in parentheses) [µM] | Ms ED50 (Mycobacterium smegmatis; 48 hours) [µg/mL] | Ms ED50 (Mycobacterium smegmatis; value in parentheses) [µM] | Bs ED50 (B. subtilis; 12 hours) | Bs ED50 (B. subtilis; value in parentheses) [µM] | Sa ED50 (S. aureus) [µg/mL] | Sa ED50 (S. aureus; value in parentheses) [µM]
CC(C)CCCC(C)CCCn1cc[n+](CC(P(=O)([O-])O)P(=O)(O)O)c1 (stereo not drawn) [Compound 75, Hydrogen(2-(1-(4,8-dimethylnonyl)-1H-imidazol-3-ium-3-yl)-1-phosphonoethyl) phosphonate] | 181 | 440 | 1.8 | 4.4 | 1.4 | 3.4 | 1.7 µg/mL | 4.1 | 26 | 63
CC(C)CCCC(C)CCNc1ccc[n+](CC(P(=O)([O-])O)P(=O)(O)O)c1 (stereo not drawn) [Compound 78, Hydrogen(2-(3-((3,7-dimethyloctyl)amino)pyridin-1-ium-1-yl)-1-phosphonoethyl) phosphonate] | 186 | 440 | 0.8 | 1.9 | 5.5 | 13 | 2.4 µg/mL | 5.7 | 13 | 31
CC(C)CCCC(C)CCSc1ccc[n+](CC(P(=O)([O-])O)P(=O)(O)O)c1 (stereo not drawn) [Compound 79, Hydrogen(2-(3-((3,7-dimethyloctyl)thio)pyridin-1-ium-1-yl)-1-phosphonoethyl) phosphonate] | 224 | 510 | 0.4 | 0.9 | 6.2 | 14 | 2.8 µg/mL | 6.4 | 18 | 41
CC(C)CCCC(C)CCn1cc[n+](CC(P(=O)([O-])O)P(=O)(O)O)c1 (stereo not drawn) [Compound 82, Hydrogen(2-(1-(3,7-dimethyloctyl)-1H-imidazol-3-ium-3-yl)-1-phosphonoethyl) phosphonate] | 170 | 420 | 4.3 | 11 | 15 | 38 | 4.6 µg/mL | 12 | 34 | 86
CC(C)CCCC(C)CCc1csc(NCC(P(=O)(O)O)P(=O)(O)O)n1 (stereo not drawn) [Compound 86, (2-((4-(3,7-Dimethyloctyl)thiazol-2-yl)amino)ethane-1,1-diyl)bis(phosphonic acid)] | – | – | 5.0 | 12 | 150 | 350 | 8.3 µg/mL | 19 | 23 | 54
CC(C)CCCC(C)CCc1cnc(NCC(P(=O)(O)O)P(=O)(O)O)s1 (stereo not drawn) [Compound 88, (2-((5-(3,7-Dimethyloctyl)thiazol-2-yl)amino)ethane-1,1-diyl)bis(phosphonic acid)] | – | – | 7.4 | 17 | 150 | 350 | 21 µg/mL | 49 | 36 | 84
CC(C)CCCC(C)CCCC(C)CCOc1ccc[n+](CC(P(=O)([O-])O)P(=O)(O)O)c1 (stereo not drawn) [Compound 90, Hydrogen(1-phosphono-2-(3-((3,7,11-trimethyldodecyl)oxy)pyridin-1-ium-1-yl)ethyl) phosphonate] | – | – | 5.0 | 10 | 91 | 180 | 36 µg/mL | 73 | 22 | 45
CC(C)CCOc1ccc[n+](CC(P(=O)([O-])O)P(=O)(O)O)c1 (stereo not drawn) [Compound 91, Hydrogen (2-(3-(isopentyloxy)pyridin-1-ium-1-yl)-1-phosphonoethyl)phosphonate] | – | – | 8.6 | 24 | 65 | 180 | 41 µg/mL | 120 | 17 | 48
CC(C)CCCC(C)CCOc1cccc(NCC(P(=O)(O)O)P(=O)(O)O)n1 (stereo not drawn) [Compound 92, (2-((6-((3,7-Dimethyloctyl)oxy)pyridin-2-yl)amino)ethane-1,1-diyl)bis(phosphonic acid)] | – | – | 4.2 | 9.6 | 200 | 460 | 75 µg/mL | 170 | 60 | 140
O=P(O)(O)C(CNc1nccs1)P(=O)(O)O [Compound 93] | – | – | 2.3 | 8.0 | 290 | 1000 | 97 µg/mL | 340 | 230 | 800
CC(C)CCCC(C)c1cnc(NCC(P(=O)(O)O)P(=O)(O)O)s1 (stereo not drawn) [Compound 94, (2-((5-(6-Methylheptan-2-yl)thiazol-2-yl)amino)ethane-1,1-diyl)bis(phosphonic acid)] | – | – | 11 | 28 | 96 | 240 | 100 µg/mL | 250 | 56 | 140
CC(C)CCCC(C)CCOc1ccnc(NCC(P(=O)(O)O)P(=O)(O)O)c1 (stereo not drawn) [Compound 96, (2-((4-((3,7-Dimethyloctyl)oxy)pyridin-2-yl)amino)ethane-1,1-diyl)bis(phosphonic acid)] | – | – | 11 | 26 | 100 | 240 | 180 µg/mL | 420 | 52 | 120
CC(C)CCCC(C)CCCC(C)CCCC(C)CCOc1ccc[n+](CC(P(=O)([O-])O)P(=O)(O)O)c1 (stereo not drawn) [Compound 97, Hydrogen(1-phosphono-2-(3-((3,7,11,15-tetramethylhexadecyl)oxy)pyridin-1-ium-1-yl)ethyl)phosphonate] | – | – | 7.7 | 14 | 210 | 370 | 260 µg/mL | 460 | 25 | 44
CC(C)CCCC(C)CCc1ccc[n+](CC(P(=O)([O-])O)P(=O)(O)O)c1 (stereo not drawn) [Compound 102, Hydrogen (2-(3-(3,7-dimethyloctyl)pyridin-1-ium-1-yl)-1-phosphonoethyl) phosphonate] | – | – | – | – | – | – | 1.9 µg/mL | – | – | –
CC(C)=CCC/C(C)=C/Cc1ccc[n+](CC(P(=O)([O-])O)P(=O)(O)O)c1 (stereo not drawn) [Compound 103, 3-[(2E)-3,7-dimethylocta-2,6-dien-1-yl]-1-(2-hydrogenphosphonato-2-phosphonoethyl)pyridin-1-ium] | – | – | – | – | – | – | ~ 9.2 μg/mL | – | – | –
